Results taken from patent US20230339937A1, “CONDENSED RING COMPOUNDS THAT INHIBIT H-PGDS” (SATO PHARMACEUTICAL CO., LTD., priority 2020, published 2023).

Molecular target: T1, Recombinant human H-PGDS (Homo sapiens, UniProt O60760)
T1 construct: made in house; host or cells: E. coli
Assay: H-PGDS inhibitory activity (prostaglandin D2 production from prostaglandin H2, measured by LC-MS/MS)
Assay type: biochemical
Conditions: recombinant human H-PGDS 1.0 nM expressed in E. coli; prostaglandin H2 25 μM; preincubated 15 minutes on ice, reacted on ice for 1 minute; concentration that inhibits prostaglandin D2 production by 50%
How it was run: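 Recombinant human H-PGDS (E. coli-expressed, 1.0 nM final) preincubated with compound 15 min on ice in 20 mM Tris-HCl pH 8.0, 2 mM MgCl2, 2 mM GSH, 0.5 mg/mL γ-globulin. Reaction with 25 µM PGH2 run 1 min on ice, stopped with FeCl2/citric acid, PGD2 quantified by LC-MS/MS. Activity expressed as % of DMSO control after subtracting non-enzymatic PGD2.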

T1 sequence (O60760 whole entry): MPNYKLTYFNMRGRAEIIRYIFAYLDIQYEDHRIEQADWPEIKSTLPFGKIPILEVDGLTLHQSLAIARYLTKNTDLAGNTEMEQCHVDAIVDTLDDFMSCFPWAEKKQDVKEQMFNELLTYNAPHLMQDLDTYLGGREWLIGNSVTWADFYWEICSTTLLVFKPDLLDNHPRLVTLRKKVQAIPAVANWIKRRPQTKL

| SMILES | IC50 [nM] |
| --- | --- |
| O=C(N[C@@H]1C[C@H]2C[C@@H](O)C[C@H]2C1)c1ccc(-c2nccc3occc23)cc1 [Example 282, 4-(furo[3,2-c]pyridin-4-yl)-N-[(2r,3aR,5r,6aS)-5-hydroxyoctahydropentalen-2-yl]benzamide] | 1.3 |
| C[C@]1(O)CC[C@@H](NC(=O)c2ccc(-c3nccc4occc34)cc2)CC1 [Example 283, 4-(furo[3,2-c]pyridin-4-yl)-N-(cis-4-hydroxy-4-methylcyclohexyl)benzamide] | 1.7 |
| O=C(NC1CCC2(CC1)COC2)c1ccc(-c2nccc3occc23)cc1 [Example 284, 4-(furo[3,2-c]pyridin-4-yl)-N-(2-oxaspiro[3.5]nonan-7-yl)benzamide] | 1.7 |
| CO[C@H]1CC[C@H](NC(=O)c2ccc(-c3nccc4occc34)cc2)CC1 [Example 285, 4-(furo[3,2-c]pyridin-4-yl)-N-(trans-4-methoxycyclohexyl)benzamide] | 2 |
| [2H]C([2H])([2H])O[C@H]1CC[C@H](NC(=O)c2ccc(-c3nccc4occc34)cc2)CC1 [Example 286, 4-(furo[3,2-c]pyridin-4-yl)-N-[trans-4-(methoxy-d3)cyclohexyl]benzamide] | 1 |
| CCO[C@H]1CC[C@H](NC(=O)c2ccc(-c3nccc4occc34)cc2)CC1 [Example 287, N-(trans-4-ethoxycyclohexyl)-4-(furo[3,2-c]pyridin-4-yl)benzamide] | 0.87 |
| CC(C)O[C@H]1CC[C@H](NC(=O)c2ccc(-c3nccc4occc34)cc2)CC1 [Example 288, 4-(furo[3,2-c]pyridin-4-yl)-N-(trans-4-isopropoxycyclohexyl)benzamide] | 1.3 |
| CC[C@]1(O)CC[C@H](NC(=O)c2ccc(-c3nccc4occc34)cc2)CC1 [Example 289, N-(trans-4-ethyl-4-hydroxycyclohexyl)-4-(furo[3,2-c]pyridin-4-yl)benzamide] | 1.6 |
| CC[C@]1(O)CC[C@@H](NC(=O)c2ccc(-c3nccc4occc34)cc2)CC1 [Example 290, N-(cis-4-ethyl-4-hydroxycyclohexyl)-4-(furo[3,2-c]pyridin-4-yl)benzamide] | 1.3 |
| O=C(N[C@H]1CC[C@](O)(C2CC2)CC1)c1ccc(-c2nccc3occc23)cc1 [Example 291, N-(cis-4-cyclopropyl-4-hydroxycyclohexyl)-4-(furo[3,2-c]pyridin-4-yl)benzamide] | 2.4 |
| CC(C)[C@]1(O)CC[C@@H](NC(=O)c2ccc(-c3nccc4occc34)cc2)CC1 [Example 292, 4-(furo[3,2-c]pyridin-4-yl)-N-(cis-4-hydroxy-4-isopropylcyclohexyl)benzamide] | 1.9 |
| O=C(N[C@H]1CC[C@H](NCC(F)F)CC1)c1ccc(-c2nccc3occc23)cc1 [Example 294, N-{trans-4-[(2,2-difluoroethyl)amino]cyclohexyl}-4-(furo[3,2-c]pyridin-4-yl)benzamide] | 1.1 |
| O=C(N[C@H]1CC[C@H](NC2COC2)CC1)c1ccc(-c2nccc3occc23)cc1 [Example 295, 4-(furo[3,2-c]pyridin-4-yl)-N-[trans-4-(oxetan-3-ylamino)cyclohexyl]benzamide] | 2.1 |
| CC(=O)N[C@H]1CC[C@H](NC(=O)c2ccc(-c3nccc4occc34)cc2)CC1 [Example 296, N-(trans-4-acetamidocyclohexyl)-4-(furo[3,2-c]pyridin-4-yl)benzamide] | 2.9 |
| Cc1nnnn1[C@H]1CC[C@H](NC(=O)c2ccc(-c3nccc4occc34)cc2)CC1 [Example 297, 4-(furo[3,2-c]pyridin-4-yl)-N-[trans-4-(5-methyl-1H-tetrazol-1-yl)cyclohexyl]benzamide] | 1.9 |
| CCC(=O)N[C@H]1CC[C@H](NC(=O)c2ccc(-c3nccc4occc34)cc2)CC1 [Example 298, 4-(furo[3,2-c]pyridin-4-yl)-N-(trans-4-propionamidocyclohexyl)benzamide] | 3.4 |
